Literature values in US11123309B2, “Methods for drug delivery, tumor imaging, and oxidative dehydrogenation using hierarchical ZSM-5 complex” (Imam Abdulrahman Bin Faisal University, priority 2018, dated 2021).

solubility in water: 50 microgram per ml
SMILES: Oc1ccc(/C=C/c2cc(O)cc(O)c2)cc1 [resveratrol, 3,5,4′ trihydroxy trans stilbene]
